Assays:
[1] = target: T1, cloned human δ opioid receptor (Homo sapiens, UniProt P41143); assay: [3H]diprenorphine receptor binding, δ opioid receptor; conditions: [3H]diprenorphine displacement; read-out: affinity (expressed as Ki value) to the δ opioid receptor
T1 construct: expressed in transfected cells
Method: (§1) Ki values were obtained by Cheng-Prusoff corrections of IC50 values.
(§2) After dilution in buffer A and homogenization as before, membrane proteins (10-80 μg) in 250 μL were added to mixtures containing test compound and [^3H]diprenorphine (0.5 to 1.0 nM, 40,000 to 50,000 dpm) in 250 μL of buffer A in 96-well deep-well polystyrene titer plates (Beckman). After incubation at room temperature for one hour, the samples were filtered through GF/B filters that had been presoaked in a solution of 0.5% (w/v) polyethylenimine and 0.1% (w/v) bovine serum albumin in water. The filters were rinsed 4 times with 1 mL of cold 50 mM Tris HCl, pH 7.8 and radioactivity remaining on the filters determined by scintillation spectroscopy. Nonspecific binding was determined by the minimum values of the titration curves and was confirmed by separate assay wells containing 10 μM naloxone.
(§3) To determine the equilibrium dissociation constant for the inhibitors (Ki), radioligand bound (cpm) in the presence of various concentrations of test compounds was measured. The concentration to give half-maximal inhibition (EC50) of radioligand binding was determined from a best nonlinear regression fit to the following equation,
(§4) The nonlinear regression fit was performed using the program Prism® (GraphPad Software, San Diego, Calif.). The Ki values were then determined from the EC50 values by the following equation, […]

[2] = target: T2, cloned human κ opioid receptor (Homo sapiens, UniProt P41145); assay: [3H]diprenorphine receptor binding, κ opioid receptor; conditions: [3H]diprenorphine displacement; read-out: affinity (expressed as Ki value) to the κ opioid receptor
T2 construct: expressed in transfected cells
T2 sequence (P41145 whole entry): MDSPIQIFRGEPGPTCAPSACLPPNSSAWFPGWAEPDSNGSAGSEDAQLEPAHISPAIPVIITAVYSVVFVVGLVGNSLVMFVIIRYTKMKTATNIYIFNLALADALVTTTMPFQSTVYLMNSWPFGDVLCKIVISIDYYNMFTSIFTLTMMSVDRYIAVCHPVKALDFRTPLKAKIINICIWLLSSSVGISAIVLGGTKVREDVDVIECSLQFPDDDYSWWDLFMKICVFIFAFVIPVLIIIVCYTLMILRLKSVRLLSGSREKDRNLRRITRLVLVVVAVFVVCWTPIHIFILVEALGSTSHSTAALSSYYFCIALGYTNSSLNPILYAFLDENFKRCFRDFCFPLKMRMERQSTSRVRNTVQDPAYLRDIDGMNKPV
Method: as §1, §2, §3, §4

T1 sequence (P41143 whole entry): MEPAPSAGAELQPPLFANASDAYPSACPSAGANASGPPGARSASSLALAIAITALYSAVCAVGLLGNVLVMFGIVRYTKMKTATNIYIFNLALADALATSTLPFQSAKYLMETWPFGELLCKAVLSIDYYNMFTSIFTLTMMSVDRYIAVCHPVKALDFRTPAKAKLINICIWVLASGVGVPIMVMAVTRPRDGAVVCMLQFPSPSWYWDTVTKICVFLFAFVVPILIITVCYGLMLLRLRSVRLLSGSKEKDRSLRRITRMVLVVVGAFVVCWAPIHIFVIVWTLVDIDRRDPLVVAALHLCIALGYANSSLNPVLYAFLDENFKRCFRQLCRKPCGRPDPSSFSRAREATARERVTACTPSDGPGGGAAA

C[C@H]1CN(C[C@H](Cc2ccccc2)C(=O)N[C@@H](CCCN)C(=O)O)CC[C@@]1(C)c1cccc(O)c1 [Example 28, 5-Amino-2(S)-{2(S)-benzyl-3-[4(R)-(3-hydroxy-phenyl)-3(R),4-dimethyl-piperidin-1-yl]-propionylamino}-pentanoic acid]
Ki [1]: 0.51 µM
Ki [2]: 0.2 µM
